Columns and labels:
[1] = test system: PI3K activity; assay: PI3K activity in KRAS wild-type and KRAS^G12X mutant lines; format: cell-based; settings: for PI3K activity: FIG. 5 left
[2] = test system: pERK (MAPK signaling); assay: pERK (MAPK signaling) levels in KRAS mutant cell lines; format: cell-based; settings: FIG. 6
[3] = test system: PIP3 levels; assay: PIP3 levels in KRAS-mutant PDAC lines; format: cell-based; settings: KRAS^G12D-mutant PDAC lines; FIG. 5 right
[4] = test system: PDAC KRAS^AMP models; assay: RMC-6236 plus chemotherapy in PDAC KRAS^AMP models; format: in vivo; settings: FIG. 4

SMILES | PI3K activity ([1]; KRAS^G12C) | PI3K activity ([1]; KRAS^G12D) | PI3K activity ([1]; KRAS^G12R line) | PI3K and MAPK activity (summary statement) ([1]; KRAS^G12R lines) | PI3K activity ([1]; KRAS^G12V) | PI3K activity ([1]; KRAS^WT) | PI3K and MAPK activity (summary statement) ([1]; isogenic and mutant KRAS^G12D lines) | levels of pERK (MAPK signaling) ([2]; KRAS^G12D mutant cell lines) | levels of pERK (MAPK signaling) ([2]; KRAS^G12R mutant cell lines) | PIP3 levels [3] | activity and durability in combination ([4]; combined with FOLFIRINOX) | activity and durability in combination ([4]; combined with GEM+Abraxane) | monotherapy activity versus chemotherapy ([4]; monotherapy, EGFR-mutant PDAC (so in the source))
CCn1c(-c2cc(N3CCN(C4CC4)CC3)cnc2[C@H](C)OC)c2c3cc(ccc31)-c1csc(n1)C[C@H](NC(=O)C1[C@H]3COC[C@@H]13)C(=O)N1CCC[C@H](N1)C(=O)OCC(C)(C)C2 (stereo partly shown) [RMC-7977] | moderate inhibitory effect | completely suppressed | no effect | not | moderate inhibitory effect | completely suppressed | suppresses both PI3K and MAPK activity | decreased | decreased | suppresses |  |  | 
CCn1c(-c2cc(N3CCN(C)CC3)cnc2[C@H](C)OC)c2c3cc(ccc31)-c1csc(n1)C[C@H](NC(=O)[C@H]1C[C@@H]1C)C(=O)N1CCC[C@H](N1)C(=O)OCC(C)(C)C2 [RMC-6236] |  |  |  |  |  |  |  |  |  |  | combination benefit resulting in increased activity and durability | combination benefit resulting in increased activity and durability | comparable activity against EGFR-mutant PDAC as chemotherapy

Source: patent publication US20260053798A1, “COMBINATION THERAPY FOR A RAS RELATED DISEASE OR DISORDER” (Revolution Medicines, Inc., priority 2023, published 2026)
